Blank lines part the entries; values can stand above or below the compound they belong to.
Columns and labels:
Format in all cases: biochemical
[1] = test system: Recombinant S1P Receptors; experiment: [γ-35S]GTP binding at recombinant S1P receptors (statements covering all receptors tested); conditions: at each receptor
Procedure: The same results were obtained regardless of whether the recombinant receptor used exogenous G proteins (HEK293T cells) or endogenous G proteins (RH7777 cells). […] The Sf9 cell and HEK293T cell membranes gave similar results. Furthermore, the activities measured in the broken cell assay predicted the responses seen in whole cell assays.
(§1) After incubating for 30 min at 30° C., bound radionuclide was separated from free by filtration through Whatman GF/C paper using a Brandel Cell Harvester (Gaithersburg, Md.).
(§2) Assay of cAMP accumulation was performed as described previously (See Im et al., J. Biol. Chem. 275, 14281-14286 (2000), the disclosure of which is incorporated herein). Assays were conducted on populations of 5×10^5 cells stimulated with 1 uM forskolin in the presence of the phosphodiesterase inhibitor […] (IBMX, 1 mM) for 15 min. cAMP was measured by automated radioimmunoassay. The GTPγS studies were performed using zebrafish S1P1 overexpressed rat RH-7777 and human hS1P1, hS1P2, hS1P3 and hS1P5 overexpressed human HEK293 cells.

hS1P3 = target: T1, hS1P3 (Homo sapiens, UniProt Q99500); experiment: [γ-35S]GTP binding, HEK293T cell membranes with S1P3 receptor
T1 construct: expressed in transfected cells; host or cells: HEK293T cells, transient transfection
Procedure: (§3) Human or mouse S1P5 DNA was mixed with an equal amount of DNA encoding a rat Gi2R protein as well as DNAs encoding cow β1 and γ2 proteins and used to transfect monolayers of HEK293T cells using the calcium phosphate precipitate method. After 60 h, cells were harvested, and microsomes were prepared, aliquoted, and stored at −70° C. until use.
as §1, §2
(§4) An additional series of compounds was tested using the GTPCS binding assay described in Example 2 and in Im et al., J. Biol. Chem. 275, 14281-14286 (2000), the disclosure of which is incorporated herein).

hS1P1 = target: T2, hS1P1 (Homo sapiens, UniProt P21453); experiment: [γ-35S]GTP binding, HEK293T cell membranes with S1P1 receptor
T2 construct: expressed in transfected cells; host or cells: HEK293T cells, transient transfection
Procedure: as §3, §1, §2, §4

T1 sequence (Q99500 whole entry): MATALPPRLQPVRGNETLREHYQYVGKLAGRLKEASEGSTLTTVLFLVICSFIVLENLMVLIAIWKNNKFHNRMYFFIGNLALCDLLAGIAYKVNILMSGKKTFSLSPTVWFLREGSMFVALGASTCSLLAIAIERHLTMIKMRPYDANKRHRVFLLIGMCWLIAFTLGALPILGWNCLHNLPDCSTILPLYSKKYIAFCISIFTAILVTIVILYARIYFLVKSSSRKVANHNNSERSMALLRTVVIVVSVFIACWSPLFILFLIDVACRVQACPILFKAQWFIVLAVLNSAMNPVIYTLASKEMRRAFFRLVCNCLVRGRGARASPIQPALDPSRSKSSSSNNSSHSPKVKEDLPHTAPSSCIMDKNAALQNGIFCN
T2 sequence (P21453 whole entry): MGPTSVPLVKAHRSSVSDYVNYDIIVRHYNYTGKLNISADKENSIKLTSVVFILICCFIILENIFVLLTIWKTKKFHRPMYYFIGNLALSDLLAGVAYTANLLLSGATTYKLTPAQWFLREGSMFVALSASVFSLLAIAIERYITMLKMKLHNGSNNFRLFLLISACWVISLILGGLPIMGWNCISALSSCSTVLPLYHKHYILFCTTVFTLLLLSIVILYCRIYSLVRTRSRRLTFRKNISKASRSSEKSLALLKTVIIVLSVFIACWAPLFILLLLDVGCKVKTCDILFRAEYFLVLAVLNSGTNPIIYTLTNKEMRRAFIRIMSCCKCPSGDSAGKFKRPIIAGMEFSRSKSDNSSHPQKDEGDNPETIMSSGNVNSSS

- increase of GTPγS binding [1]: 2-5 fold
SMILES: CCCCCCCCCCCCC/C=C/[C@@H](O)[C@@H](N)COP(=O)(O)O [Compound S1P, Sphingosine-1-phosphate]

- less potent than enantiomer VPC22135 at S1P3 receptor (hS1P3): more than 1 log order
- less potent than enantiomer VPC22135 at S1P1 receptor (hS1P1): more than 1 log order
SMILES: CCCCCCCCCCCCCCOC(=O)[C@@H](N)COP(=O)(O)O [VPC22053]

- potency compared with S1P at human S1P3 receptor (hS1P3; result in words): approached the potency of S1P
- potency compared with S1P at human S1P1 receptor (hS1P1; result in words): approached the potency of S1P
SMILES: CCCCCCCCCCCCCCNC(=O)[C@H](N)COP(=O)(O)O [VPC22135]

SMILES: CCCCCCCCc1cccc(NC(=O)[C@H](N)COP(=O)(O)O)c1 [VPC23019]
- type of activity at the S1P3 receptor (inverse agonism / agonism) (hS1P3; result in words): inverse agonists
- antagonism at S1P1 (hS1P1; result in words, competition with S1P): antagonism

SMILES: CCCCCCc1cccc(NC(=O)[C@H](N)COP(=O)(O)O)c1 [VPC23031]
- type of activity at the S1P3 receptor (inverse agonism / agonism) (hS1P3; result in words): inverse agonists

SMILES: CCCCCCCCCCc1cccc(NC(=O)[C@H](N)COP(=O)(O)O)c1 [VPC23069]
- type of activity at the S1P3 receptor (inverse agonism / agonism) (hS1P3; result in words): agonism

SMILES: CCCCCCCCCc1cccc(NC(=O)[C@H](N)COP(=O)(O)O)c1 [VPC23079]
- type of activity at the S1P3 receptor (inverse agonism / agonism) (hS1P3; result in words): agonism

SMILES: CCCCCCCCc1ccccc1NC(=O)[C@H](N)COP(=O)(O)O [VPC23089]
- type of activity at the S1P3 receptor (inverse agonism / agonism) (hS1P3; result in words): inverse agonists
